# Patent US20160296499A1, “Spiroindoline Antiparasitic Derivatives” (ZOETIS SERVICES LLC, priority 2013, published 2016)
# pKi: −log10 of the molar value. Read-outs that look alike come from different tables or passages of the source.
# Legend:
# Haemonchus contortus L3 = test: Haemonchus contortus, Larvae Stage 3 (HcL3) In Vitro Assay; details: Haemonchus contortus
# [1] = system: Dirofilaria immitis microfilariae; test: Dirofilaria immitis, Microfilariae (DiMF) In Vitro Assay
# [2] = target: T1, bovine vesicular acetylcholine transporter (VAChT) (Bos taurus, UniProt E1BK36); test: Radioligand Binding Assay; details: Bovine binding Ki, CHO-K1 membranes with recombinant bovine VAChT, [3H]Compound X6 0.3 nM
# T1 sequence (E1BK36 1-524): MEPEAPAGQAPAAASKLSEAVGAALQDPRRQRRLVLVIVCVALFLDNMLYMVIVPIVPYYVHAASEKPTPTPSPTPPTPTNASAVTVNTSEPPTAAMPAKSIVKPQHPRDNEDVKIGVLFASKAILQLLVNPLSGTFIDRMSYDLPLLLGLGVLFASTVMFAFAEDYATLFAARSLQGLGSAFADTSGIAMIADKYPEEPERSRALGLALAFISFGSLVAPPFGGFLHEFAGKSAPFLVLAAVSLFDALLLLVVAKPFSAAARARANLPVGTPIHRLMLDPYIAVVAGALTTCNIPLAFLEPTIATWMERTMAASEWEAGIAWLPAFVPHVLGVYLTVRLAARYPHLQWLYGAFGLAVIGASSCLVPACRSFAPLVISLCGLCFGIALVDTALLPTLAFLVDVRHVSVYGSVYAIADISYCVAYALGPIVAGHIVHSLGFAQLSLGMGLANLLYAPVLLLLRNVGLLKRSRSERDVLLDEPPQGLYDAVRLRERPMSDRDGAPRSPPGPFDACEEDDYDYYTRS
# [3] = 96 h, read-out: HcL3 MEC, Minimal Effective Concentration whereby worm motility is inhibited by approximately 70%, 37° C., tested 0.001-100 μM
# [4] = Dirofilaria immitis, 72 h, read-out: Di MF, MEC, decrease in microfilariae motility by visual assessment, curve starting at 100 μM
# [5] = 96 hours, 37° C., read-out: HcL3 MEC
# [6] = Dirofilaria immitis, 72 hours, read-out: Di MF
smiles,measurement,setting,value
"N#Cc1ccc(/C=C/CN2CCC3(CC2)CN(C(=O)NCc2ccnc(Cl)c2)c2cc(C(F)(F)F)c(Cl)cc23)cc1 [Example 72, (E)-5-chloro-N-((2-chloropyridin-4-yl)methyl)-1′-(3-(4-cyanophenyl)allyl)-6-(trifluoromethyl)spiro[indoline-3,4′-piperidine]-1-carboxamide]",minimal effective concentration,Haemonchus contortus L3; [3],10 µM
same,minimal effective concentration,[1]; [4],3.3 µM
same,pKi,[2],7.57
"COc1ccc(/C=C/CN2CCC3(CC2)CN(C(=O)NCc2ccnc(Cl)c2)c2ccc4sc(C)nc4c23)cc1 [Example 46, (E)-N-((2-chloropyridin-4-yl)methyl)-1-(3-(4-methoxyphenyl)allyl)-2′-methylspiro[piperidine-4,8′-thiazolo[4,5-e]indole]-6′(7′H)-carboxamide]",minimal effective concentration,Haemonchus contortus L3; [3],> 100 µM
same,minimal effective concentration,[1]; [4],10 µM
same,pKi,[2],6.05
"O=C(NCc1ccnc(Cl)c1)N1CC2(CCN(C/C=C/c3ccc(Cl)cc3)CC2)c2c1ccc(F)c2Cl [Example 140, (E)-4-chloro-1′-(3-(4-chlorophenyl)allyl)-N-((2-chloropyridin-4-yl)methyl)-5-fluorospiro[indoline-3,4′-piperidine]-1-carboxamide]",minimal effective concentration,Haemonchus contortus L3; [5],3.3 µM
same,minimal effective concentration,[1]; [6],5.7 µM
same,pKi,[2],7.02
"O=C(NCc1ccnc(Cl)c1)N1CC2(CCN(C/C=C/c3ccc(F)cc3)CC2)c2cc3c(cc21)COC3 [Example 4, (E)-N-((2-chloropyridin-4-yl)methyl)-1′-(3-(4-fluorophenyl)allyl)-5,7-dihydrospiro[furo[3,4-f]indole-3,4′-piperidine]-1(2H)-carboxamide]",minimal effective concentration,Haemonchus contortus L3; [5],10 µM
same,minimal effective concentration,[1]; [6],10 µM
same,pKi,[2],7.10
"Cn1ncc2c3c(ccc21)N(C(=O)NCc1ccnc(Cl)c1)CC31CCN(C/C=C/c2ccc(Cl)cc2)CC1 [Example 51, (E)-1-(3-(4-chlorophenyl)allyl)-N-((2-chloropyridin-4-yl)methyl)-3′-methyl-3′H-spiro[piperidine-4,8′-pyrrolo[3,2-e]indazole]-6′(7′H)-carboxamide]",minimal effective concentration,Haemonchus contortus L3; [5],> 100 µM
same,minimal effective concentration,[1]; [6],33.3 µM
same,pKi,[2],6.29
"O=C(NCc1ccnc(Cl)c1)N1CC2(CCN(C/C=C/c3ccc(Cl)c(Cl)c3)CC2)c2c1cccc2C(F)(F)F [Example 56, (E)-N-((2-chloropyridin-4-yl)methyl)-1′-(3-(3,4-dichlorophenyl)allyl)-4-(trifluoromethyl)spiro[indoline-3,4′-piperidine]-1-carboxamide]",minimal effective concentration,Haemonchus contortus L3; [5],4.5 µM
same,minimal effective concentration,[1]; [6],9.1 µM
same,pKi,[2],6.36
"O=C(NCc1ccnc(Cl)c1)N1CC2(CCN(C/C=C/c3ccc(Cl)c(Cl)c3)CC2)c2c1ccc1c2OCCO1 [Example 11, (E)-N-((2-chloropyridin-4-yl)methyl)-1-(3-(3,4-dichlorophenyl)allyl)-2′,3′-dihydrospiro[piperidine-4,9′-[1,4]dioxino[2,3-e]indole]-7′(8′H)-carboxamide]",minimal effective concentration,Haemonchus contortus L3; [3],100 µM
same,minimal effective concentration,[1]; [4],10 µM
same,pKi,[2],6.75
"Cc1nc2c3c(ccc2s1)N(C(=O)NCc1ccnc(Cl)c1)CC31CCN(C/C=C/c2ccc(Cl)cc2)CC1 [Example 43, (E)-1-(3-(4-chlorophenyl)allyl)-N-((2-chloropyridin-4-yl)methyl)-2′-methylspiro[piperidine-4,8′-thiazolo[4,5-e]indole]-6′(7′H)-carboxamide]",minimal effective concentration,Haemonchus contortus L3; [3],> 100 µM
same,minimal effective concentration,[1]; [4],10 µM
same,pKi,[2],6.58
"O=C(NCc1ccnc(Cl)c1)N1CC2(CCN(C/C=C/c3ccc(F)cc3)CC2)c2c1cccc2C(F)(F)F [Example 153, (E)-N-((2-chloropyridin-4-yl)methyl)-1′-(3-(4-fluorophenyl)allyl)-4-(trifluoromethyl)spiro[indoline-3,4′-piperidine]-1-carboxamide]",minimal effective concentration,Haemonchus contortus L3; [3],5.7 µM
same,minimal effective concentration,[1]; [4],7.6 µM
same,pKi,[2],6.66
"O=C(NCc1ccnc(F)c1)N1CC2(CCN(C/C=C/c3ccc(Cl)cc3)CC2)c2cc(-n3ccccc3=O)ccc21 [Example 75, (E)-1′-(3-(4-chlorophenyl)allyl)-N-((2-fluoropyridin-4-yl)methyl)-5-(2-oxopyridin-1(2H)-yl)spiro[indoline-3,4′-piperidine]-1-carboxamide]",minimal effective concentration,Haemonchus contortus L3; [3],100 µM
same,minimal effective concentration,[1]; [4],4.4 µM
same,pKi,[2],4.94
"O=C(NCc1ccc([N+](=O)[O-])cc1)N1CC2(CCN(C/C=C/c3ccc(Cl)c(Cl)c3)CC2)c2c1ccc1scnc21 [Example 17, (E)-1-(3-(3,4-dichlorophenyl)allyl)-N-(4-nitrobenzyl)spiro[piperidine-4,8′-thiazolo[4,5-e]indole]-6′(7′H)-carboxamide]",minimal effective concentration,Haemonchus contortus L3; [3],100 µM
same,minimal effective concentration,[1]; [4],10 µM
same,pKi,[2],4.94
"O=C(NCc1cnc(Cl)s1)N1CC2(CCN(C/C=C/c3ccc(Cl)cc3)CC2)c2cc(C(F)(F)F)ccc21 [Example 85, (E)-1′-(3-(4-chlorophenyl)allyl)-N-((2-chlorothiazol-5-yl)methyl)-5-(trifluoromethyl)spiro[indoline-3,4′-piperidine]-1-carboxamide]",minimal effective concentration,Haemonchus contortus L3; [5],18.2 µM
same,minimal effective concentration,[1]; [6],10 µM
same,pKi,[2],6.65
"O=C(NCc1ccnc(F)c1)N1CC2(CCN(C/C=C/c3ccc(Cl)cc3)CC2)c2c1ccc(F)c2Cl [Example 63, (E)-4-chloro-1′-(3-(4-chlorophenyl)allyl)-5-fluoro-N-((2-fluoropyridin-4-yl)methyl)spiro[indoline-3,4′-piperidine]-1-carboxamide]",minimal effective concentration,Haemonchus contortus L3; [3],8.2 µM
same,minimal effective concentration,[1]; [4],5.7 µM
same,pKi,[2],6.74
"N#Cc1cc2c(cn1)N(C(=O)NCc1ccnc(Cl)c1)CC21CCN(C/C=C/c2ccc(Cl)cc2)CC1 [Example 86, (E)-1-(3-(4-chlorophenyl)allyl)-N-((2-chloropyridin-4-yl)methyl)-5′-cyanospiro[piperidine-4,3′-pyrrolo[2,3-c]pyridine]-1′(2′H)-carboxamide]",minimal effective concentration,Haemonchus contortus L3; [3],3.3 µM
same,minimal effective concentration,[1]; [4],5.7 µM
same,pKi,[2],7.50
"O=C(NCC1CCOC1)N1CC2(CCN(C/C=C/c3ccc(Cl)c(Cl)c3)CC2)c2c1ccc1scnc21 (racemic) [Example 35, (+/−)(E)-1-(3-(3,4-dichlorophenyl)allyl)-N-((tetrahydrofuran-3-yl)methyl)spiro[piperidine-4,8′-thiazolo[4,5-e]indole]-6′(7′H)-carboxamide]",minimal effective concentration,Haemonchus contortus L3; [3],100 µM
same,minimal effective concentration,[1]; [4],3.3 µM
same,pKi,[2],6.14
"N#Cc1ccc(/C=C/CN2CCC3(CC2)CN(C(=O)NCc2ccnc(Cl)c2)c2cc(-c4ccccc4C(F)(F)F)ccc23)cc1 [Example 96, (E)-N-((2-chloropyridin-4-yl)methyl)-1′-(3-(4-cyanophenyl)allyl)-6-(2-(trifluoromethyl)phenyl)spiro[indoline-3,4′-piperidine]-1-carboxamide]",minimal effective concentration,Haemonchus contortus L3; [3],100 µM
same,minimal effective concentration,[1]; [4],5.7 µM
same,pKi,[2],7.60
"COc1nccc2c1C1(CCN(C/C=C/c3ccc(Cl)c(Cl)c3)CC1)CN2C(=O)NCc1ccnc(Cl)c1 [Example 68, (E)-N-((2-chloropyridin-4-yl)methyl)-1-(3-(3,4-dichlorophenyl)allyl)-4′-methoxyspiro[piperidine-4,3′-pyrrolo[3,2-c]pyridine]-1′(2′H)-carboxamide]",minimal effective concentration,Haemonchus contortus L3; [3],33 µM
same,minimal effective concentration,[1]; [4],1.3 µM
same,pKi,[2],6.09
"O=C(NCc1ccnc(Cl)c1)N1CC2(CCN(C/C=C/c3ccc(Cl)c(Cl)c3)CC2)c2cc3c(cc21)OCCO3 [Example 9, (E)-N-((2-chloropyridin-4-yl)methyl)-1-(3-(3,4-dichlorophenyl)allyl)-2′,3′-dihydrospiro[piperidine-4,8′-[1,4]dioxino[2,3-f]indole]-6′(7′H)-carboxamide]",minimal effective concentration,Haemonchus contortus L3; [3],33 µM
same,minimal effective concentration,[1]; [4],10 µM
same,pKi,[2],7.20
"O=C(NCc1ccnc(Cl)c1)N1CC2(CCN(C/C=C/c3ccc(F)cc3)CC2)c2c1ccc(Cl)c2Cl [Example 143, (E)-4,5-dichloro-N-((2-chloropyridin-4-yl)methyl)-1′-(3-(4-fluorophenyl)allyl)spiro[indoline-3,4′-piperidine]-1-carboxamide]",minimal effective concentration,Haemonchus contortus L3; [5],3.3 µM
same,minimal effective concentration,[1]; [6],5.7 µM
same,pKi,[2],6.94
"O=C(NCc1ccnc(Cl)c1)N1CC2(CCN(C/C=C/c3ccc(Cl)cc3)CC2)c2cc(OC(F)(F)F)ccc21 [Example 147, (E)-1′-(3-(4-chlorophenyl)allyl)-N-((2-chloropyridin-4-yl)methyl)-5-(trifluoromethoxy)spiro[indoline-3,4′-piperidine]-1-carboxamide]",minimal effective concentration,Haemonchus contortus L3; [3],3.9 µM
same,minimal effective concentration,"[1]; MEC, decrease in microfilariae motility by visual assessment, 72 hours, curve starting at 100 μM, read-out: Di MF",4.8 µM
same,pKi,[2],6.49
